Results as given in patent publication US9968582B2, “Use of a benzoate containing composition in urea cycle disorders and neurodegenerative disorders” (Rush University Medical Center, priority 2014, dated 2018).

Tests used:
[1] = system: dopamine (DA) in the striata; experiment: MPTP mouse model of PD, HPLC of striatal dopamine; assay type: in vivo, mice; details: MPTP intoxication compared to saline-injected control mice, 7 days; FIG. 10
Description: (§1) Six- to eight-week old C57BL/6 mice were purchased from Harlan (Indianapolis, Ind.). For acute MPTP intoxication, mice received four intraperitoneal (i.p.) injections of MPTP-HCl (18 mg/kg of free base; Sigma Chemical Co., St. Louis, Mo.) in saline at 2-h intervals. Control animals received only saline.
(§2) GTB was mixed in 0.5% methylcellulose (MC) and from 3 h after the last injection of MPTP, mice were gavaged 100 μL GTB-mixed MC once daily using gavage needle. Therefore, control MPTP mice received only MC as vehicle.
Striatal level of dopamine was quantified in Complete Stand-Alone HPLC-ECD System EiCOMHTEC-500 (JM Science Inc., Grand Island, N.Y.). Briefly, mice were sacrificed by cervical dislocation after 7 days of MPTP intoxication and their striata were collected and immediately frozen in dry ice and stored at −80° C. until analysis. On the day of the analysis, tissues were sonicated in 0.2M perchloric acid containing isoproterenol and resulting homogenates were centrifuged at 20,000×g for 15 min at 4 C. After pH adjustment and filtration, 10 μl of supernatant was injected onto an Eicompak SC-3ODS column (Complete Stand-Alone HPLC-ECD System EiCOMHTEC-500 from JM Science Inc., Grand Island, N.Y.) and analyzed following the manufacturer's protocol.
Next, to determine whether GTB protects against biochemical deficits caused by MPTP, the inventor quantified levels of dopamine (DA) in the striata 7 days after the MPTP treatment. As evident from FIG. 10, MPTP intoxication led to about 75% decrease in striatal DA compared to striata of saline-injected control mice.

[2] = system: Tyrosine hydroxylase (TH); experiment: MPTP mouse model of PD, Western blot of nigral TH; assay type: in vivo, mice; details: MPTP intoxication compared with saline-injected controls; FIG. 9A-B
Description: as §1, §2
(§3) Immunoblot analysis for DJ-1 and TH was carried out. Briefly, cell homogenates were electrophoresed, proteins were transferred onto a nitrocellulose membrane, and bands were visualized with an Odyssey infrared scanner after immunolabeling with respective primary antibodies followed by infra-red fluorophore-tagged secondary antibody (Invitrogen).
Tyrosine hydroxylase (TH), the key enzyme responsible for the production of dopamine, is present in dopaminergic neurons. MPTP-intoxication led to approximately 60% loss of nigral TH (FIG. 9A-B) compared with saline-injected controls.

DJ-1 [3] = experiment: MPTP mouse model of PD, Western blot of DJ-1 in the nigra; assay type: in vivo, mice; details: MPTP intoxication; FIG. 9A-B
Description: as §1, §2, §3
Upregulation and/or maintenance of PD-related beneficial protein such as DJ-1 in the nigra during neurodegenerative insults may have therapeutic efficacy in PD.

[4] = system: disease process of multiple sclerosis (MS) in mice; details: cited from earlier work
BDNF = details: brain cells; cited from earlier work
DJ-1 [5] = details: astrocytes and neurons (cited title); cited from earlier work
NT-3 = details: brain cells; cited from earlier work
[6] = in vivo; cited from earlier work

Structure (SMILES)	decrease in striatal DA [1]	loss of nigral TH [2]	level of DJ-1 in the nigra (DJ-1 [3])	disease process of multiple sclerosis (MS) [4]	production of BDNF (BDNF)	DJ-1 protein (DJ-1 [5])	production of NT-3 (NT-3)	metabolism and excretion [6]
CN1CC=C(c2ccccc2)CC1 [MPTP, reference compound]	about 75%	approximately 60%	decreased the level of DJ-1	–	–	–	–	–
O=C([O-])c1ccccc1.[Na+] [sodium benzoate]	–	–	–	suppresses the disease process	increases the production	up-regulates	increases the production	quickly metabolized and excreted from the body
